From patent EP4008401A1, “COMPOSITION FOR CARTILAGE REGENERATION PROMOTION” (Suntory Holdings Limited, priority 2019, dated 2021)
Like-named read-outs stand apart in the source and are kept apart here.

System: human synovial cells
Assay: Cartilage pellet culture of human synovial cells (weight of cartilage pellets; differentiation into cartilage cells)
Format: cell-based
Settings: for activity at 5 µM / activity at 50 µM: Homo sapiens, Synovial cell, 504 h, read-out: Rate of increase (%); for weight of the cartilage pellets as compared to the control: result in words; for Weight of pellets (g) (Ave): cultured three weeks
Protocol: Purchased human synovial cells (available from Toyobo Co., Ltd.; HFLS (Normal), cryopreserved cells (adult); Code No. CA40805a) were seeded into a 150 mm culture dish (available from Corning) at a low density of 50 cells/cm^2 and cultured for 14 days.
The human synovial cells were cultured in the following medium. • α-MEM (available from Nacalai Tesque Inc.) • 10% Fetal bovine serum (available from Sigma-Aldrich) Antibiotic-Antimycotic Mixed Stock Solution (available from Nacalai Tesque Inc.)
Proliferated human synovial cells were detached with Accutase (available from Funakoshi Co., Ltd.), and the medium containing 20 × 10^4 cells was placed in a 15 mL tube made of polypropylene, followed by centrifugation at 1000 × rpm for five minutes. The recovered human synovial cells were cultured in a medium containing a test compound shown in Table 1 for three weeks, and the weight of the resultant cartilage pellets was measured (N = 3, each). The medium containing the test compound was replaced once in two or three days. The test compound was dissolved in the medium using dimethyl sulfoxide (DMSO) (available from Nacalai Tesque Inc.; final concentration: 0.1%) to a final concentration of 50 µM. The test compound was taxifolin (available from Sigma-Aldrich) or hesperetin (available from Funakoshi Co., Ltd.).
The cartilage pellets were cultured in the following medium. The control was cultured by adding DMSO without test compounds to the medium described below (final concentration of DMSO: 0.1%).
DMEM high-glucose (available from Thermo Fisher Scientific) 50 µg/mL L-ascorbic acid 2-phosphate sesquimagnesium salt hydrate (available from Sigma-Aldrich) 40 µg/mL L-proline (available from Sigma-Aldrich) 100 µg/mL Sodium pyruvate (available from Sigma-Aldrich) 50 mg/mL ITS + Premix (available from Corning) 10 ng/mL Transforming growth factor β3 (available from Sigma-Aldrich) 100 nM Dexamethasone (available from Sigma-Aldrich) 50 ng/mL Bone morphogenetic protein 2 (BMP-2) (available from Sigma-Aldrich)
In Table 1, the weight of pellets (g) is the weight of the cartilage pellets (average with N of 3), and SE is the standard error of the weight of pellets. […] A significant difference in the rate of increase (%) determined from the weight of the cartilage pellets relative to the control was tested by Student's t-test, with the significance level being 5% or lower. […]
The test of Example 1 was repeated, except that quercetin (available from Nacalai Tesque Inc.), isorhamnetin (available from Funakoshi Co., Ltd.), or eriodictyol (available from Funakoshi Co., Ltd.) was used as a test compound, and the test compound in the medium was adjusted to a final concentration of 5 µM. […] A significant difference test was performed as in Example 1, with the significance level being 5% or lower.
The test of Example 1 was repeated, except that luteolin (available from Funakoshi Co., Ltd.) or morin (available from Nacalai Tesque Inc.) was used as a test compound, and the test compound in the medium was adjusted to a final concentration of 5 µM. […] A significant difference test was performed as in Example 1, with the significance level being 5% or lower and the marginal significance level being 10% or lower. […]
The test of Example 1 was repeated, except that the compounds shown in Table 4 were used as test compounds and tested with N = 1. […] The final concentration of each of the compounds Nos. 1 to 15 in the medium was adjusted to 5 µM. The final concentration of each of the compounds Nos. 16 to 21 in the medium was adjusted to 50 µM.

[1] = Comparative Example 1, compounds Nos. 1 to 15, 5 µM, weight relative to control taken as 100%, N = 1
[2] = Example 1, test compound 50 µM in medium, average with N of 3
[3] = Example 1, 50 µM, weight of cartilage pellets relative to control taken as 100%, N = 3
[4] = Example 3, test compound 5 µM in medium, average of N of 3
[5] = Example 3, 5 µM, weight of cartilage pellets relative to control taken as 100%, N = 3
[6] = Comparative Example 1, compounds Nos. 16 to 21, 50 µM, weight relative to control taken as 100%, N = 1
[7] = Example 2, test compound 5 µM in medium, average with N of 3
[8] = Example 2, 5 µM, weight of cartilage pellets relative to control taken as 100%, N = 3

`O=c1c(-c2ccc(O)cc2)coc2cc(O)cc(O)c12` [Genistein] was tested, and the activity at 5 µM [1] was 104%.

In the case of `COc1ccc([C@@H]2CC(=O)c3c(O)cc(O)cc3O2)cc1O` [Hesperetin, hesperetin], the “weight of the cartilage pellets as compared to the control” value (from here on “weight … compared to the control”) (Example 1, 50 µM) was “significant increase”, the “Weight of pellets (g) (Ave)” value [2] was 5.50 g and the activity at 50 µM [3] was 139%.

`Oc1cc(O)c2cc(O)c(-c3cc(O)c(O)c(O)c3)[o+]c2c1` [Delphinidin] gave an activity at 5 µM [1] of 41.9%.

`O=c1cc(-c2ccc(O)c(O)c2)oc2cc(O)cc(O)c12` [Luteolin, luteolin] was tested, and the “Weight of pellets (g) (Ave)” value [4] was 3.53 g, the “weight … compared to the control” value (Examples 2 and 3, 5 µM) was “increase” and the activity at 5 µM [5] was 128%.

`COc1ccc(-c2coc3cc(O)ccc3c2=O)cc1` [Formononetin] was tested, and the activity at 5 µM [1] was 100%.

With `O=c1c(-c2ccc(O)cc2)coc2cc(O)ccc12` [Daidzein] the activity at 5 µM [1] was 100%.

Work on `Oc1ccc([C@H]2COc3cc(O)ccc3C2)cc1` [Equol] yielded an activity at 5 µM of 81.4%.

`O=C1c2c(O)cc(O)cc2OCC1c1ccc(O)cc1` (stereo not drawn) [Dihydrogenistein] was tested, and the activity at 50 µM [6] was 92.9%.

`O=C(/C=C/c1ccc(O)c(O)c1)c1c(O)cc(O)cc1O` [3,4,2',4',6'-Pentahydroxychalcon] was tested, and the activity at 5 µM [1] was 111%.

Work on `O=c1cc(-c2ccc(O)cc2)oc2cc(O)cc(O)c12` [Apigenin] yielded an activity at 5 µM [1] of 105%.

Work on `O=c1cc(-c2ccccc2)oc2cc(O)cc(O)c12` [Chrysin] yielded an activity at 50 µM [6] of 108%.

Molecule `O=c1c(-c2ccc(O)c(O)c2)coc2cc(O)ccc12` [7,3',4'-Trihydroxyisoflavone] has an activity at 5 µM [1] of 95.3%.

`O=c1c(O)c(-c2ccc(O)cc2)oc2cc(O)cc(O)c12` [Kaempferol] showed an activity at 50 µM [6] of 95.8%.

For `O=C1C[C@@H](c2ccc(O)c(O)c2)Oc2cc(O)cc(O)c21` [Eriodictyol, eriodictyol], the “Weight of pellets (g) (Ave)” value [7] was 4.80 g, the “weight … compared to the control” value (Examples 2 and 3, 5 µM) was “significant increase” and the activity at 5 µM [8] was 132%.

For `COc1ccc(-c2coc3cc(O)cc(O)c3c2=O)cc1` [Biochaninn A], the activity at 5 µM [1] was 21.4%.

`C[C@@H]1O[C@@H](O[C@H]2C(=O)c3c(O)cc(O)cc3O[C@@H]2c2ccc(O)c(O)c2)[C@H](O)[C@H](O)[C@H]1O` [Astilbin] showed an activity at 5 µM [1] of 60.5%.

`Oc1cc(O)c2c(c1)O[C@H](c1ccc(O)c(O)c1)[C@H](O)C2` [Epicatechin] showed an activity at 50 µM [6] of 117%.

With `O=c1c(O)c(-c2ccc(O)cc2O)oc2cc(O)cc(O)c12` [Morin, morin] the “Weight of pellets (g) (Ave)” value [4] was 4.00 g, the “weight … compared to the control” value (Examples 2 and 3, 5 µM) was “significant increase” and the activity at 5 µM [5] was 145%.

In the case of `O=C(/C=C/c1ccc(O)cc1)c1c(O)cc(O)cc1O` [4,2',4',6'-Tetrahydroxychalcon], the activity at 5 µM [1] was 118%.

For `O=C(/C=C/c1ccc(O)cc1)c1ccc(O)cc1O` [Isoliquiritigenin], the activity at 5 µM was 82.1%.

`COc1ccc(-c2coc3cc(O)ccc3c2=O)cc1O` [Calycosin] showed an activity at 5 µM [1] of 95.3%.

With `O=c1c(O)c(-c2ccc(O)c(O)c2)oc2cc(O)cc(O)c12` [Quercetin, quercetin] the “Weight of pellets (g) (Ave)” value [7] was 5.90 g, the “weight … compared to the control” value (Examples 2 and 3, 5 µM) was “significant increase” and the activity at 5 µM [8] was 162%.

With `COc1cc(-c2oc3cc(O)cc(O)c3c(=O)c2O)ccc1O` [Isorham netin, isorhamnetin] the “Weight of pellets (g) (Ave)” value [7] was 5.77 g, the “weight … compared to the control” value (Examples 2 and 3, 5 µM) was “significant increase” and the activity at 5 µM [8] was 159%.

`O=C1C[C@@H](c2ccc(O)cc2)Oc2cc(O)cc(O)c21` [Naringenin] showed an activity at 50 µM [6] of 117%.

In the case of `O=C1c2c(O)cc(O)cc2O[C@H](c2ccc(O)c(O)c2)[C@H]1O` [Taxifolin, taxifolin], the “weight … compared to the control” value (Example 1, 50 µM) was “significant increase”, the “Weight of pellets (g) (Ave)” value [2] was 5.73 g and the activity at 50 µM [3] was 144%.

Work on `Oc1cc(O)c2cc(O)c(-c3ccc(O)c(O)c3)[o+]c2c1` [Cyanidin] yielded an activity at 5 µM [1] of 51.2%.

With `O=c1c(O)c(-c2cc(O)c(O)c(O)c2)oc2cc(O)cc(O)c12` [Myricetin] the activity at 5 µM [1] was 69.8%.

`Oc1cc(O)c2c(c1)OC(c1ccc(O)c(O)c1)C(O)C2` (stereo not drawn) [Catechin] gave an activity at 50 µM of 112%.
